The source of these data is US10111874B2, “Combination therapies for treatment of cancer” (Araxes Pharma LLC, priority 2014, dated 2018).

T1 sequence (P01116 1-169 isoform P01116-2 G12C): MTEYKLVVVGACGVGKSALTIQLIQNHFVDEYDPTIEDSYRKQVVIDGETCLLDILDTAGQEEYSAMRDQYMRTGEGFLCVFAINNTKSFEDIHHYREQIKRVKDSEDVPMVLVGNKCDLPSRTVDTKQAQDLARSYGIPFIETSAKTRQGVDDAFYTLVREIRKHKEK

The first test addresses T1, KRAS G12C 1-169, his-tagged protein, GDP-loaded (Homo sapiens, UniProt P01116, G12C).
T1 construct: KRAS G12C 1-169, his-tagged protein, GDP-loaded
Kind of test: Biochemical assay: covalent binding to KRAS G12C analyzed by mass spectrometry. Also: test concentration or dose not given here. As to conditions: compounds 1-47, measured at 24 h.
Turning to `C=CC(=O)N1CC(N2CCN(C(=O)CNc3cc(Cl)c(Cl)cc3O)CC2)C1` [Example 38, 1-(3-(4-(2-(4,5-dichloro-2-hydroxyphenylamino)acetyl)piperazin-1-yl)azetidin-1-yl)prop-2-en-1-one], the Binding % result was “++ (++indicates binding activity greater than 25% and up to 50%)”.
As for `C=CC(=O)NC1CN(C2CN(C(=O)CNc3cc(Cl)c(Cl)cc3O)C2)C1` [Example 39, N-(1′-(2-(4,5-dichloro-2-hydroxyphenylamino)acetyl)-1,3′-biazetidin-3-yl)acrylamide], the Binding % result is recorded as “+ (+indicates binding activity from 5% to 25%)”.
On the same count and under the same terms, with `C=CC(=O)N1CCC2(C1)CN(C(=O)CNc1cc(Cl)c(Cl)cc1O)C2` [Example 40, 1-(2-(2-(4,5-dichloro-2-hydroxyphenylamino)acetyl)-2,6-diazaspiro[3.4]octan-6-yl)prop-2-en-1-one] the entry was “+++ (+++indicates binding activity greater than 50% and up to 75%)”.

Still in this test, the particulars now being: compounds 48-246, measured at 2 h.
`C=CC(=O)N1CC(N2CCN(C(=O)OC(C)(C)C)CC2)C1` [Example 50, tert-butyl 4-(1-acryloylazetidin-3-yl)piperazine-1-carboxylate]: the Binding % result is “+ (+indicates binding activity from 5% to 25%)”.

The test is the same for the next values; noted with them: compounds 247-342, measured at 30 min.
For the molecule `C=CC(=O)N1CCN(c2ncnc3c(F)c(-c4c(O)cc(F)cc4F)c(Cl)cc23)CC1` [Compound I-280, 1-(4-(6-chloro-7-(2,4-difluoro-6-hydroxyphenyl)-8-fluoroquinazolin-4-yl)piperazin-1-yl)prop-2-en-1-one], the Binding % result was “+++ (+++indicates binding activity greater than 50% and up to 75%)”.
Still for that read-out and setting: with `C=CC(=O)N1CCN(c2ncnc3c(F)c(-c4cc(-c5c[nH]cn5)ccc4F)c(Cl)cc23)CC1` [Compound I-281, 1-(4-(6-chloro-8-fluoro-7-(2-fluoro-5-(1H-imidazol-4-yl)phenyl)quinazolin-4-yl)piperazin-1-yl)prop-2-en-1-one] the entry was “++ (++indicates binding activity greater than 25% and up to 50%)”; with `CC(C)/C=C(\C#N)C(=O)N1CCN(c2ncnc3c(F)c(-c4c(O)cccc4F)c(Cl)cc23)CC1` [Compound I-282, (E)-2-(4-(6-chloro-8-fluoro-7-(2-fluoro-6-hydroxyphenyl)quinazolin-4-yl)piperazine-1-carbonyl)-4-methylpent-2-enenitrile], “+++ (+++indicates binding activity greater than 50% and up to 75%)”.
On the same count and under the same terms, the same measure for `N#C/C(=C\c1cncs1)C(=O)N1CCN(c2ncnc3c(F)c(-c4c(O)cccc4F)c(Cl)cc23)CC1` [Compound I-283, (E)-2-(4-(6-chloro-8-fluoro-7-(2-fluoro-6-hydroxyphenyl)quinazolin-4-yl)piperazine-1-carbonyl)-3-(thiazol-5-yl)acrylonitrile]: “++ (++indicates binding activity greater than 25% and up to 50%)”; for `N#C/C(=C\c1ccccn1)C(=O)N1CCN(c2ncnc3c(F)c(-c4c(O)cccc4F)c(Cl)cc23)CC1` [Compound I-284, (E)-2-(4-(6-chloro-8-fluoro-7-(2-fluoro-6-hydroxyphenyl)quinazolin-4-yl)piperazine-1-carbonyl)-3-(pyridin-2-yl)acrylonitrile]: “++++ (++++indicates binding activity greater than 75%)”.
Same read-out and setting: the same measure for `C=CC(=O)N1CCN(c2c(C#N)cnc3c(F)c(-c4ccccc4C(F)(F)F)c(Cl)cc23)CC1` [Compound I-285, 4-(4-acryloylpiperazin-1-yl)-6-chloro-8-fluoro-7-(2-(trifluoromethyl)phenyl) quinoline-3-carbonitrile]: “+++ (+++indicates binding activity greater than 50% and up to 75%)”; for `C=CC(=O)N1CCN(c2ncnc3c(Cl)c(-c4c(OC)ccc5ccccc45)c(Cl)cc23)CC1` [Compound I-286, 1-(4-(6,8-dichloro-7-(2-methoxynaphthalen-1-yl)quinazolin-4-yl)piperazin-1-yl)prop-2-en-1-one]: “+ (+indicates binding activity from 5% to 25%)”.
In the case of `C=CC(=O)N1CCN(c2ncnc3c(F)c(-c4c(C)cccc4OC)c(Cl)cc23)CC1` [Compound I-287, 1-(4-(6-chloro-8-fluoro-7-(2-methoxy-6-methylphenyl)quinazolin-4-yl)piperazin-1-yl)prop-2-en-1-one], the Binding % result is “++ (++indicates binding activity greater than 25% and up to 50%)”.
Turning to `C=CC(=O)N1CCN(c2ncnc3c(F)c(-c4c[nH]c5ccccc45)c(Cl)cc23)CC1` [Compound I-288, 1-(4-(6-chloro-8-fluoro-7-(1H-indol-3-yl)quinazolin-4-yl)piperazin-1-yl)prop-2-en-1-one], the Binding % result is “++ (++indicates binding activity greater than 25% and up to 50%)”.
Still for that read-out and setting: the same measure for `C=CC(=O)N1CCN(c2ncnc3c(F)c(-c4c(O)cccc4Cl)c(Cl)cc23)CC1` [Compound I-289, 1-(4-(6-chloro-7-(2-chloro-6-hydroxyphenyl)-8-fluoroquinazolin-4-yl)piperazin-1-yl)prop-2-en-1-one]: “+++ (+++indicates binding activity greater than 50% and up to 75%)”; for `C=CC(=O)N1CCN(c2ncnc3c(F)c(-c4c(C)cccc4Cl)c(Cl)cc23)CC1` [Compound I-290, 1-(4-(6-chloro-7-(2-chloro-6-methylphenyl)-8-fluoroquinazolin-4-yl)piperazin-1-yl)prop-2-en-1-one]: “+++ (+++indicates binding activity greater than 50% and up to 75%)”.
As to `C=CC(=O)N1CCN(c2c(C#N)cnc3c(F)c(-c4cc(O)cc5ccccc45)c(Cl)cc23)CC1` [Compound I-291, 4-(4-acryloylpiperazin-1-yl)-6-chloro-8-fluoro-7-(3-hydroxynaphthalen-1-yl)quinoline-3-carbonitrile], the Binding % result was “++++ (++++indicates binding activity greater than 75%)”.
Still for that read-out and setting: the same measure for `C=CC(=O)N1CCN(c2ncnc3c(F)c(-c4ccc(F)cc4F)c(C)cc23)CC1` [Compound I-292, 1-(4-(7-(2,4-difluorophenyl)-8-fluoro-6-methylquinazolin-4-yl)piperazin-1-yl)prop-2-en-1-one]: “+ (+indicates binding activity from 5% to 25%)”; for `C=CC(=O)N1CCN(c2c(C#N)cnc3c(F)c(-c4c(C)ccc5[nH]ncc45)c(Cl)cc23)CC1` [Compound I-293, 4-(4-acryloylpiperazin-1-yl)-6-chloro-8-fluoro-7-(5-methyl-1H-indazol-4-yl)quinoline-3-carbonitrile]: “++++ (++++indicates binding activity greater than 75%)”; for `C=CC(=O)N1CCN(c2ncnc3c(F)c(-c4c(C)ccc5[nH]ncc45)c(Cl)cc23)CC1CC#N` (stereo not drawn) [Compound I-294]: “++++ (++++indicates binding activity greater than 75%)”.
On the same count and under the same terms, the same measure for `Cc1ccc2[nH]ncc2c1-c1c(Cl)cc2c(N3CCN(C(=O)/C=C/CN(C)C)CC3)ncnc2c1F` [Compound I-295, (E)-1-(4-(6-chloro-8-fluoro-7-(5-methyl-1H-indazol-4-yl)quinazolin-4-yl)piperazin-1-yl)-4-(dimethylamino)but-2-en-1-one]: “+ (+indicates binding activity from 5% to 25%)”.

The test is the same for the next values; noted with them: determined at 24 hrs.
In the case of `C=CC(=O)N1CC(N2CCN(C(=O)CNc3cc(Cl)c(Cl)cc3O)CC2)C1` [II-1, 1-(3-(4-(2-(4,5-dichloro-2-hydroxyphenyl-amino)acetyl)-piperazin-1-yl)azetidin-1-yl)prop-2-en-1-one], the Binding % result is given as “++++ (++++indicates binding activity greater than 50%)”.
The same measure, in the same setting: with `C=CC(=O)N1CCC(N2CCN(C(=O)CNc3cc(Cl)c(Cl)cc3O)CC2)C1` (stereo not drawn) [II-2, 1-(3-(4-(2-(4,5-dichloro-2-hydroxyphenyl-amino)acetyl)piperazin-1-yl)pyrrolidin-1-yl)prop-2-en-1-one] the entry was “+++ (+++indicates binding activity greater than 25% and up to 50%)”.
In the case of `C=CC(=O)NC1CN(C2CN(C(=O)CNc3cc(Cl)c(Cl)cc3O)C2)C1` [II-3, N-(1′-(2-(4,5-dichloro-2-hydroxyphenyl-amino)acetyl)-1,3′-biazetidin-3-yl)acrylamide], the Binding % entry is on record as “++++ (++++indicates binding activity greater than 50%)”.
Same read-out and setting: with `C=CC(=O)N1CC(N2CCN(C(=O)CNc3cc(OC)c(Cl)cc3Cl)CC2)C1` [II-5, 1-(3-(4-(2-(2,4-dichloro-5-methoxyphenyl-amino)acetyl)-piperazin-1-yl)azetidin-1-yl)prop-2-en-1-one] the entry was “+ (+indicates binding activity from 5% to 15%)”; with `C=CC(=O)N1CC(N2CCN(C(=O)CCc3cc(Cl)c(Cl)cc3O)CC2)C1` [II-6, 1-(3-(4-(3-(4,5-dichloro-2-hydroxyphenyl)-propanoyl)piperazin-1-yl)azetidin-1-yl)prop-2-en-1-one], “+ (+indicates binding activity from 5% to 15%)”.
The same measure, in the same setting: the same measure for `C=CC(=O)N1CCC(N2CCN(C(=O)CNc3cc(C)c(Cl)cc3O)CC2)C1` (stereo not drawn) [II-7, 1-(3-(4-(2-(4-chloro-2-hydroxy-5-methylphenylamino)-acetyl)piperazin-1-yl)pyrrolidin-1-yl)prop-2-en-1-one]: “++ (++indicates binding activity greater than 15% and up to 25%)”.
The same measure, in the same setting: with `C=CC(=O)N1CC(N2CCN(C(=O)CNc3cc(C#N)c(Cl)cc3Cl)CC2)C1` [II-9, 5-(2-(4-(1-acryloylazetidin-3-yl)piperazin-1-yl)-2-oxoethylamino)-2,4-dichlorobenzonitrile] the entry was “+ (+indicates binding activity from 5% to 15%)”; with `C=CC(=O)N1CC(N2CCN(C(=O)CNc3cc(Cl)c(Cl)cc3C(N)=O)CC2)C1` [II-10, 2-(2-(4-(1-acryloylazetidin-3-yl)piperazin-1-yl)-2-oxoethylamino)-4,5-dichlorobenzamide], “+ (+indicates binding activity from 5% to 15%)”; with `C=CC(=O)N1CCC(N2CCN(C(=O)CNc3cc(I)c(Cl)cc3O)CC2)C1` (stereo not drawn) [II-11], “++++ (++++indicates binding activity greater than 50%)”.
`C=CC(=O)N1CCC(N2CCN(C(=O)CNc3cc(CC)c(Cl)cc3O)CC2)C1` (stereo not drawn) [II-12, 1-(3-(4-(2-(4-chloro-5-ethyl-2-hydroxyphenylamino)-acetyl)piperazin-1-yl)pyrrolidin-1-yl)prop-2-en-1-one]: the Binding % result is “+++ (+++indicates binding activity greater than 25% and up to 50%)”.
